In patent US10517871B2, “Survivin-targeting anti-tumor agents and uses thereof” (Indiana University Research and Technology Corporation, priority 2015, dated 2019):
Entries after “also recorded” stand apart in the source; their conditions may differ. Residues, ends and D or L forms follow the SMILES beside them. *: point of attachment. Cbz = O=C(OCc1ccccc1)*

Columns and labels:
[1] = tested on: cancer cells; details: read-out: IC50 for proliferation of cancer cells; cited from earlier work
[2] = biological target: survivin and its partner Ran protein (Homo sapiens, UniProt O15392); details: cited from earlier work
[3] = biological target: survivin (Homo sapiens, UniProt O15392); details: cited from earlier work
[4] = biological target: T1, ectopic Flag-tagged survivin in HEK293 cells (Homo sapiens, UniProt O15392); assay: Western blot of ectopic tagged survivin in HEK293; format: cell-based
T1 construct: expressed in transfected cells; host or cells: HEK293 cells, CMV promoter

[5] = tested on: PC-3 cells; assay: MTT cell survival assay, PC-3; format: cell-based, human; details: PC3, MTT, compared with LQZ-7
Experimental: (§1) Human prostate cancer cell lines DU145 (top) and PC3 cells (bottom) were cultured in the presence of vehicle DMSO or 20 μM compounds off in-silico screening for 3 days followed by MTT assay. Cells survived in the presence of various compounds were normalized to that treated by DMSO vehicle. Arrows indicate compounds that inhibited >50% in cell survival. (*p<0.05; **p<0.01).
(§2) These assays were performed as previously described^49,50. Briefly, MTT assay were performed by seeding 2500 cells in 96-well plate and cultured 24 hours before addition of survivin inhibitors at different concentrations and continuous culture for 3 days. The cells were then subjected to MTT assay. For colony formation assay, 100 cells/well were seeded in 6-well plates and cultured for 24 hours before addition of survivin inhibitors or DMSO vehicle. The cells were continuously cultured in the presence of survivin inhibitors or DMSO for 10-14 days followed by staining with crystal violet and counting manually.

[6] = tested on: DU145 cells; assay: MTT cell survival assay, DU145; format: cell-based, human; details: compared with LQZ-7
Experimental: as §1, §2

[7] = biological target: T2, survivin in PC3 cells (Homo sapiens, UniProt O15392); assay: Western blot of endogenous survivin, PC3; format: cell-based; details: vs vehicle
T2 construct: endogenous in cells; host or cells: PC-3 cells

[8] = tested on: A549 cells; assay: Colony formation assay, A549; format: cell-based, human; details: control 45%
Experimental: as §2

[9] = tested on: PC-3 xenograft tumors; assay: PC-3 xenograft mouse model efficacy; format: in vivo, NOD/SCID mice
Experimental: We next determined if LQZ-7F is active in suppressing tumor growth in vivo using xenograft animal model. For this purpose, NOD/SCID mice were first implanted subcutaneously with PC-3 cells to establish xenograft tumors. PC-3 cell was chosen because it has highest IC50 (FIG. 6). When the xenograft tumor reached the size of ˜100 mm^3, the mice were randomized into two groups and treated with 25 mg/kg LQZ-7F or vehicle control via IP injection once every three days for total of 8 treatments. The growth of the xenograft tumors were measured using a caliper and body weight was monitored every three days for a total of 30 days. […] In fact, the body weight of the control group dropped slightly possibly due to disease burden of xenograft tumors. This symptom appears to be alleviated by LQZ-7F treatment, consistent with smaller tumor size in the treatment group.
For efficacy study, 3×10^6 PC-3 cells were injected subcutaneously in the flanks of 10 NOD/SCID mice. When the tumor volume reached about 100 mm^3, the mice were randomized into two different groups (5/group) with one group treated by vehicle control and the other by LQZ-7F at 25 mg/kg via IP injection once every three days for total of 8 treatments. Tumor volume and body weight were measured […]. On the 30th day after the initial treatment, mice were euthanized and the tumor tissues were harvested, weighed, and subjected to hematoxylin and eosin (H&E) staining as well as Western blot and immunohistochemistry analysis of survivin.

[10] = tested on: PC3 cells; assay: Colony formation assay, PC3; format: cell-based, human; set-up: unit of the concentration uncertain; details: control approximately 62%
Experimental: as §2

[11] = biological target: T3, survivin in DU145 and PC-3 cells (Homo sapiens, UniProt O15392); assay: Survivin half-life determination (cycloheximide chase); format: cell-based; details: PC-3, cycloheximide pre-treated, 5 μM LQZ-7F
T3 construct: endogenous in cells; host or cells: DU145 and PC-3 cells
Experimental: PC-3 cells were pre-treated with cycloheximide (CHX) to inhibit protein synthesis followed by chasing for different times in the presence of LQZ-7F or DMSO control and Western blot analysis of remaining survivin.
The effect of survivin inhibitor on the half-life of survivin was determined as previously described^51. […] The cells were then harvested for Western blot analysis of survivin.

[12] = tested on: multiple human cancer cell lines (acute myeloid leukemia, breast, colon, lung, pancreas, prostate, ovary); assay: MTT assay, multiple human cancer cell lines; format: cell-based; details: range over all cell lines tested, read-out: IC50 for survival of cancer cell lines
Experimental: Toward this goal, we tested the effect of LQZ-7F on survival of multiple human cancer cell lines representing acute myeloid leukemia and cancers of breast, colon, lung, pancreas, prostate, and ovary using MTT assay.
as §2

[13] = tested on: PC-3 cells; assay: Microtubule structure by α-tubulin immunostaining; format: cell-based, human; details: PC-3, 2 μM, 24 hours
Experimental: PC3 cells were treated without or with 2 μM LQZ-7F for 24 hours followed by immunostaining of α-tubulin and counter-stained with DAPI. The images were captured using confocal microscopy.

[14] = biological target: purified survivin (Homo sapiens, UniProt O15392); assay: Pull-down assay with sepharose-immobilized compound; format: binding; details: CNBr-activated sepharose, vs control beads
Text: LQZ-7F was immobilized onto CNBr-activated Sepharose and used to pull down recombinant survivin, followed by separation on SDS-PAGE and silver staining.
To investigate if LQZ-7F indeed binds to survivin, we took advantage of the primary amine group and immobilized LQZ-7F onto CNBr-activated sepharose for a pull-down assay using purified survivin.

[15] = biological target: T4, survivin in DU145 cells (Homo sapiens, UniProt O15392); assay: Western blot of endogenous survivin, DU145; format: cell-based; details: vs vehicle
T4 construct: endogenous in cells; host or cells: DU145

[16] = tested on: survivin mRNA in DU145 cells; assay: Real-time RT-PCR of survivin mRNA; format: cell-based, human; details: DU145, 48 hrs
[17] = biological target: T5, 14-3-3σ (Homo sapiens, UniProt P31947); assay: Non-denaturing PAGE of 14-3-3σ dimerization; format: biochemical; details: 100 μM
T5 sequence (P31947 1-248): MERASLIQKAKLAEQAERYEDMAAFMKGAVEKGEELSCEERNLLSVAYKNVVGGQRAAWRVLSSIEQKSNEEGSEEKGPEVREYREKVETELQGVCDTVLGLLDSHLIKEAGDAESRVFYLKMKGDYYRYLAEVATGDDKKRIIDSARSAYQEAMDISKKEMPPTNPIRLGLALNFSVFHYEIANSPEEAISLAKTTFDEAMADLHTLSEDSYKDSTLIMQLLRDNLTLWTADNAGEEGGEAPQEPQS
Experimental: After centrifugation at 11,000×g for 10 minutes, the supernatants were separated by electrophoresis on 15% Tris/glycine polyacrylamide gel followed by transfer to PVDF membrane for western blot analysis as previously described^48.

[18] = biological target: T2, survivin in PC3 cells; assay: Proteasome inhibitor reversal of compound-induced survivin degradation; format: cell-based; details: for effect of proteasome inhibitor on LQZ-7F-induced survivin degradation: co-treatment with LQZ-7F
[19] = tested on: human cancers; details: several phase II trials; cited from earlier work

T2 sequence (O15392 whole entry): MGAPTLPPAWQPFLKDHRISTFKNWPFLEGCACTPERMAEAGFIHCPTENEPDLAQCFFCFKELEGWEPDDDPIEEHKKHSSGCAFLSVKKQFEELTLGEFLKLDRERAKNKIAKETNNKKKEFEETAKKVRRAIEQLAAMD
T1 sequence (O15392 whole entry): as above
T4 sequence (O15392 whole entry): as above
survivin, sequence (O15392 whole entry): as above
survivin and its partner Ran protein, sequence (O15392 whole entry): as above
purified survivin, sequence (O15392 whole entry): as above
T3 sequence (O15392 whole entry): as above

N#Cc1c(-c2cc(OCc3ccccc3)cc(OCc3ccccc3)c2)cc(-c2cc(Cl)ccc2O)[nH]c1=O [LLP3]
IC50 [1]: 14 to 38 µM
interaction between survivin and Ran protein [2]: inhibited
effect on survivin dimerization or its expression [3]: no effect

Cc1cccc(Nc2nc3nonc3nc2N/N=C/c2ccc(-c3ccc(Cl)c([N+](=O)[O-])c3)o2)c1C [LQZ-7A]
level of ectopic tagged survivin [4]: no effect
IC50 in words [5]: low IC50
IC50 in words [6]: low IC50

Cc1cccc(Nc2nc3nonc3nc2N/N=C/c2cc3c(cc2[N+](=O)[O-])OCO3)c1C [LQZ-7D]
level of ectopic tagged survivin [4]: no effect
IC50 in words [5]: low IC50
IC50 in words [6]: low IC50

Nc1nonc1C(=O)N/N=C1\c2ccccc2-c2nc3nonc3nc21 [LQZ-7F]
level of ectopic tagged survivin [4]: reduced survivin protein level; also recorded: completely eliminated survivin
endogenous survivin protein level [7]: effectively suppressed
IC50 in words [5]: lower IC50 than the parent compound
colony formation efficiency ([8]; A549, 0.2): approximately 2.5%
colony formation efficiency ([8]; A549, 0.5): ~0%
body weight of mice ([9]; 25 mg/kg IP once every three days, 8 treatments): remained constant
growth of xenograft tumors ([9]; 25 mg/kg IP once every three days, 8 treatments, vs vehicle): significantly inhibited
average weight of final tumors ([9]; 25 mg/kg IP, day 30, vs control group): significantly less
apoptotic cells in tumors ([9]; 25 mg/kg IP, vs control-treated tumors): more apoptotic cells
survivin in xenograft tumors ([9]; Western blot and IHC, vs control-treated group): dramatically reduced
colony formation efficiency ([10]; PC3, 0.2 (unit uncertain)): approximately 52%
colony formation efficiency ([10]; PC3, 0.5 (unit uncertain)): ~12%
colony formation efficiency ([10]; PC3, 1 (unit uncertain)): ~8%
degradation of endogenous survivin [11]: increased degradation
IC50 [12]: 0.4 to 4.4 µM
IC50 in words [6]: lower IC50 than the parent compound
microtubule structure [13]: severely disrupted
mitotic arrest [13]: many cells are arrested in mitotic phase
pull-down of survivin by immobilized compound [14]: successfully pulled down
endogenous survivin protein level [15]: effectively suppressed

Cc1cccc(Nc2nc3nonc3nc2N/N=C/c2ccc(-c3cccc(C(=O)O)c3)o2)c1C [LQZ-7]
survivin mRNA level [16]: no effect
effect on 14-3-3σ dimerization [17]: no effect

CC(C)C[C@@H](C=O)NC(=O)[C@H](CC(C)C)NC(=O)[C@H](CC(C)C)NC(=O)OCc1ccccc1 [MG132] (Cbz-Leu-Leu-Leu-aldehyde)
effect of proteasome inhibitor on LQZ-7-induced survivin loss ([18]; co-treatment with LQZ-7, PC-3): reversed
effect of proteasome inhibitor on LQZ-7F-induced survivin degradation [18]: able to rescue

COCCn1c2c([n+](Cc3cnccn3)c1C)C(=O)c1ccccc1C2=O [YM155]
clinical efficacy [19]: limited or modest at best efficacy

CC(C)C[C@H](NC(=O)[C@H](Cc1ccccc1)NC(=O)c1cnccn1)B(O)O [bortezomib]
effect of proteasome inhibitor on LQZ-7F-induced survivin degradation [18]: able to rescue
